Here are results for nine molecules from article PMC5297980 (Clinical Pharmacology in Drug Development, 2016).

The structures appear in SMILES notation. Bounds are passed on as bounds.

The test system of one data set is P‐gp. The settings on record: in vitro studies; cited from earlier work.
The subject of the next data set is OCT2. As to conditions: HEK293 cells, [^14C]metformin substrate; ref data on file; cited from earlier work.
The test system of data set [1] is multidrug and toxin extrusion 1 (MATE1). The settings on record: HEK293 cells, [^14C]metformin substrate; ref data on file; cited from earlier work.
Data set [2] is described as follows: Phase 1 methotrexate-isavuconazole interaction study, plasma PK. The format is in vivo, human.
The test system of data set [3] is organic anion transporter 1 (OAT1). As to conditions: HEK293 cells, [^3H]‐p‐aminohippuric acid substrate; ref data on file; cited from earlier work.
The nature of data set [4]: Phase 1 atorvastatin-isavuconazole interaction study, plasma PK. As to conditions: human, oral, 200 mg.
Data set [5] is described as follows: Phase 1 digoxin-isavuconazole interaction study, plasma PK. The format is in vivo, human.
For data set [6], the system named is organic anion‐transporting polypeptide 1B1 (OATP1B1). The settings on record: HEK293 cells, [^3H]estradiol 17β‐D‐glucuronide substrate; ref data on file; cited from earlier work.
In another data set the test system is OAT3. As to conditions: HEK293 cells, [^3H]estrone sulfate substrate; ref data on file; cited from earlier work.
Data set [7] can be described thus: Phase 1 metformin-isavuconazole interaction study, plasma PK.
The subject of data set [8] is organic cation transporter 1 (OCT1). The settings on record: HEK293 cells, [^14C]tetraethylammonium bromide; ref data on file; cited from earlier work.
For data set [9] the following is noted: cited from earlier work.
For data set [10] the following is noted: OATP1B1 substrate; cited from earlier work.
The mark [11] stands for this setting: methotrexate + isavuconazole (day 8), mean (SD).
Setting [12] is: methotrexate + isavuconazole vs methotrexate alone.
The mark [13] stands for this setting: methotrexate alone (day 1), mean (SD).

With `OC(Cn1cncn1)(Cn1cncn1)c1ccc(F)cc1F` [fluconazole], the “inhibition of P‐gp‐mediated active transport” value with P‐gp is “not an inhibitor”.

With `C[C@@H](c1nc(-c2ccc(C#N)cc2)cs1)[C@](O)(Cn1cncn1)c1cc(F)ccc1F` [Isavuconazole, isavuconazole], the IC50 (usually the concentration needed to halve the response being measured) in the data set with OCT2 is 1.97 µM; in data set [1] it was 6.31 µM; in data set [3], more than 10 µM; in data set [6], 11.2 µM; in the data set with OAT3, more than 10 µM; in data set [8] it was 3.74 µM. Further, the Ki (commonly a measure of affinity in units of concentration, obtained from inhibition or displacement) was 0.69 µM with OCT2 and 1.74 µM in data set [8]. The AUC (in general, the area under the concentration-time curve, a measure of exposure) was 99400 ng·h/mL in [2] (human, plasma, oral, 200 mg); 77300 ng·h/mL in data set [4]; 102000 ng·h/mL in data set [5] (human, plasma, oral, 200 mg); 106000 ng·h/mL in [7] (human, plasma, oral, 200 mg). Further, the Cmax in [2] (human, plasma, oral, 200 mg) was determined as 6200 ng/mL; in [4], 5300 ng/mL; in data set [5] (human, plasma, oral, 200 mg), 6100 ng/mL; in data set [7] (human, plasma, oral, 200 mg), 7100 ng/mL. Moreover, the Tmax in data set [2] (human, plasma, oral, 200 mg) is 3 h; in [4], 3 h; in data set [5] (human, plasma, oral, 200 mg), 3 h; in [7] (human, plasma, oral, 200 mg) it was 3 h.

As for `CN(C)C(=N)N=C(N)N` [Metformin, metformin], the AUC(0-t) (as a rule, the area under the concentration-time curve up to a stated or last time point) in data set [7] (human, plasma, oral, 850 mg) stood at 9120 ng·h/mL. Moreover, in data set [7] (metformin + isavuconazole (day 8), median (range)), the Tmax is 2.0 (1.0‐4.0) h. The Cmax in data set [7] (metformin alone (day 1), mean (SD)) was 1467 (449) ng/mL. In addition, the Tmax in [7] (metformin alone (day 1), median (range)) was 2.5 (1.0‐6.0) h. For the same molecule, in data set [7] (metformin hydrochloride 850 mg single oral dose alone (day 1), mean (SD)), the “AUC∞” value was 9303 (2543) h·ng/mL. For the same molecule, in data set [7] (metformin study), the “Mean AUClast higher in the presence vs absence of isavuconazole” value turned out to be 50%, the “Mean AUC∞ higher in the presence vs absence of isavuconazole” value is recorded as 52% and the “Mean Cmax higher in the presence vs absence of isavuconazole” value is 23%.

Consider `CC[C@@H]([C@H](C)O)n1ncn(-c2ccc(N3CCN(c4ccc(OC[C@@H]5CO[C@@](Cn6cncn6)(c6ccc(F)cc6F)C5)cc4)CC3)cc2)c1=O` [Posaconazole], for which, in data set [9] (ref NOXAFIL package insert), the “effect on plasma concentrations of digoxin” value is given as “increase plasma concentrations of digoxin”.

Consider `CCOc1cc(CC(=O)N[C@@H](CC(C)C)c2ccccc2N2CCCCC2)ccc1C(=O)O` [repaglinide], for which the “PK in the presence and absence of isavuconazole” value in data set [10] is given as “unchanged”.

For `CN(Cc1nc2c(N)nc(N)nc2[nH]c1=O)c1ccc(C(=O)N[C@@H](CCC(=O)O)C(=O)O)cc1` [7‐Hydroxymethotrexate, 7‐hydroxymethotrexate], the “AUC∞” value in data set [2] (methotrexate 7.5 mg single oral dose alone (day 1), mean (SD)) is recorded as 635.8 (309.3) h·ng/mL. For the same molecule, in data set [2] (setting [11]), the AUClast is listed as 683.2 (272.5) h·ng/mL, the Cmax is given as 36.7 (14.0) ng/mL and the t1/2 was 13.0 (2.3) h. Also, the Tmax in data set [2] (methotrexate + isavuconazole (day 8), median (range)) was 6.0 (3.5‐10.0) h. Also, in [2] (setting [12]), the “AUClast geometric least‐squares mean ratio (90% confidence interval)” value was 124 (114, 135) %; the “AUC∞ geometric least‐squares mean ratio (90% confidence interval)” value is reported as 129 (119, 141) %; the “Cmax geometric least‐squares mean ratio (90% confidence interval)” value is listed as 115 (104, 127) %. In addition, in [2] (setting [13]), the AUClast is 554.6 (242.6) h·ng/mL, the Cmax was 32.1 (13.4) ng/mL and the t1/2 is 11.9 (2.9) h. For the same molecule, the Tmax in [2] (methotrexate alone (day 1), median (range)) is given as 6.0 (5.0‐10.0) h. Moreover, in [2] (vs methotrexate alone), the “Mean AUClast higher during concomitant administration with isavuconazole” value amounted to 24%, the “Mean AUC∞ higher during concomitant administration with isavuconazole” value is reported as 29% and the “Mean Cmax higher during concomitant administration with isavuconazole” value amounted to 15%.

In the case of `CN(Cc1cnc2nc(N)nc(N)c2n1)c1ccc(C(=O)N[C@@H](CCC(=O)O)C(=O)O)cc1` [Methotrexate, methotrexate], in [2] (human, plasma, oral, 7.5 mg), the Cmax came out at 156 ng/mL and the Tmax worked out at 1 h. Also, the AUC(0-inf) (as a rule, total exposure, with the tail of the curve extrapolated) in [2] (human, plasma, po, 7.5 mg) was determined as 620 ng·h/mL. Besides, in data set [2] (vs methotrexate alone), the “Mean AUClast lower when coadministered with isavuconazole” value turned out to be 3%, the “Mean AUC∞ lower when coadministered with isavuconazole” value amounted to 3% and the “Mean Cmax lower when coadministered with isavuconazole” value is listed as 11%.

As for `CCC(C)n1ncn(-c2ccc(N3CCN(c4ccc(OCC5COC(Cn6cncn6)(c6ccc(Cl)cc6Cl)O5)cc4)CC3)cc2)c1=O` (stereo not drawn) [itraconazole], the “increase in plasma digoxin concentrations during coadministration” value in data set [9] is “approximately 80%”.

Regarding `C[C@H]1O[C@@H](O[C@H]2[C@@H](O)C[C@H](O[C@H]3[C@@H](O)C[C@H](O[C@H]4CC[C@@]5(C)[C@H](CC[C@@H]6[C@@H]5C[C@@H](O)[C@]5(C)[C@@H](C7=CC(=O)OC7)CC[C@]65O)C4)O[C@@H]3C)O[C@@H]2C)C[C@H](O)[C@@H]1O` [Digoxin, digoxin], in [5] (digoxin study), the “Mean AUClast higher in the presence vs absence of isavuconazole” value is listed as 24%, the “Mean AUC∞ higher in the presence vs absence of isavuconazole” value is 25% and the “Mean Cmax higher in the presence vs absence of isavuconazole” value turned out to be 33%. Moreover, in data set [5] (human, plasma, oral, 0.5 mg), the area under the curve AUC(0-t) was found to be 32.9 ng·h/mL; the Cmax worked out at 1.6 ng/mL; the half-life (in general, the time needed for the level to fall by half in the phase considered) is 40.9 h. In data set [5] (human, plasma, po, 0.5 mg), this molecule came in with an AUC(0-inf) of 34.4 ng·h/mL.
